In US11691951B2 (Curtana Pharmaceuticals, Inc., priority 2015, dated 2023):

test system: GBM4 cells (human glioblastoma neurosphere cell culture); assay: GBM4 viability assay (Cell Titer Glo luminescence, 3 days); type: cell-based; details: 72 h, 3 days incubation
Method: Example 283: GBM4 and GBM8 Viability Assay
Cell culture medium was prepared from a NSA proliferation kit (Neurocult) and NeuroCult supplements (Stemcell Tech Cat. #05751) and treated with 20 μL of 10 μg/mL rh EGF, 10 μL of 10 μg/mL rh bFGF and 10 μL of 0.2% Heparin. In this medium, human glioblastoma cells were cultured in ultra-low attachment tissue culture flasks until 1×10^6 cells ml was achieved (GBM4 and GBM8 are distinct neurosphere cell cultures derived from these human patient tissues). GBM4 and GBM8 cells were dissociated and 10 mL of media containing 4000 human glioblastoma cells per 90 uL were transferred to an ultra-low binding 96-well plate and incubated at 37° C. overnight. On the following day, 10 μL of a 1% DMSO solution of test compound in assay medium was added to wells containing the cell suspension and the mixture incubated at 37° C. for 3 days. At this time, the plate was removed from the incubator and allowed to reach room temperature. After about 30 minutes, 50 μL of Cell Titer Glo solution was added to each well and the plate shaken for 1 minute at low speed. After 10 minutes luminescence was recorded using a Tecan Safire2 reader.
Reduction in luminescence compared to DMSO only control wells was used to determine the percentage inhibition of cell growth. IC50s were calculated using the % inhibition of luminescence for serial dilutions of compounds fitted to a 4-parameter fit within the Prism (San Diego) curve fitting program.

IC50 [nM]	Compound
10000 to 30000	Cc1cc(N2CCN(C)CC2)nc(NC(=O)Nc2ccc(Cl)c(Cl)c2)n1 [Compound 5, 1-(3,4-dichlorophenyl)-3-{6-methyl-4-(4-methyl-piperazin-1-yl-)pyrimidin-2-yl}-urea]

test system: GBM8 cells (human glioblastoma neurosphere cell culture); assay: GBM8 viability assay (Cell Titer Glo luminescence, 3 days); type: cell-based; details: 72 h, 3 days incubation
How it was run: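 Patient-derived neurosphere cells (4000/well) in NeuroCult medium with rh EGF, rh bFGF and heparin, ultra-low attachment, dosed after overnight settling; 3 days at 37 °C. CellTiter-Glo luminescence versus DMSO controls gave % growth inhibition; IC50 from 4-parameter fit of serial dilutions.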

IC50 [nM]	Compound
1000 to 10000	Cc1ccc(NC(=O)Nc2nc(C)cc(NCC3CCCNC3)n2)cc1 (stereo not shown) [Compound 249, 1-(4-methyl-6-((piperidin-3-ylmethyl)amino)pyrimidin-2-yl)-3-(p-tolyl)urea]
< 1000	Cc1cc(NCCCN(C)C)nc(NC(=O)Nc2ccc(C)c(C)c2)n1 [Compound 251, 1-(4-((3-(dimethylamino)propyl)amino)-6-methylpyrimidin-2-yl)-3-(3,4-dimethylphenyl)urea]
< 1000	Cc1cc(NCCCN)nc(NC(=O)Nc2ccc(C)c(C)c2)n1 [Compound 253]
< 1000	Cc1cc(NCCCCN)nc(NC(=O)Nc2ccc(C)c(C)c2)n1 [Compound 254]
< 1000	Cc1cc(NCCCCO)nc(NC(=O)Nc2ccc(C)c(C)c2)n1 [Compound 255]
< 1000	Cc1cc(NCCCCN(C)C)nc(NC(=O)Nc2ccc(C)c(C)c2)n1 [Compound 256]
1000 to 10000	Cc1cc(NCC2CCCN(C)C2)nc(NC(=O)Nc2ccc(C)c(C)c2)n1 (stereo not shown) [Compound 258]
< 1000	Cc1cc(NCCO)nc(NC(=O)Nc2ccc(C)c(C)c2)n1 [Compound 259]
1000 to 10000	Cc1cc(NCCOCCO)nc(NC(=O)Nc2ccc(C)c(C)c2)n1 [Compound 260]
< 1000	CCCNc1cc(C)nc(NC(=O)Nc2ccc(C)c(C)c2)n1 [Compound 261]
< 1000	Cc1cc(NCC(C)O)nc(NC(=O)Nc2ccc(C)c(C)c2)n1 (stereo not shown) [Compound 262]
< 1000	Cc1cc(NCC(O)CO)nc(NC(=O)Nc2ccc(C)c(C)c2)n1 (stereo not shown) [Compound 264]
< 1000	Cc1cc(NCCCc2cnc[nH]2)nc(NC(=O)Nc2ccc(C)c(C)c2)n1 [Compound 266]
1000 to 10000	CNCCNc1cc(C)nc(NC(=O)Nc2ccc(C)c(C)c2)n1 [Compound 268, 1-(3,4-dimethylphenyl)-3-(4-methyl-6-((2-(methylamino)ethyl)amino)pyrimidin-2-yl)urea]
< 1000	CNCCCNc1cc(C)nc(NC(=O)Nc2ccc(C)c(C)c2)n1 [Compound 269]
< 1000	CNCCCCNc1cc(C)nc(NC(=O)Nc2ccc(C)c(C)c2)n1 [Compound 270]
< 1000	Cc1cc(NCC2CCCNC2)nc(NC(=O)Nc2ccc(C)c(C)c2)n1 (stereo not shown) [Compound 271]
1000 to 10000	CC(=O)NCCCNc1cc(C)nc(NC(=O)Nc2ccc(Cl)c(Cl)c2)n1 [Compound 272, N-(3-((2-(3-(3,4-dichlorophenyl)ureido)-6-methylpyrimidin-4-yl)amino)propyl)acetamide]
< 1000	CC(=O)NCCCNc1cc(C)nc(NC(=O)Nc2ccc(OC(F)(F)F)cc2)n1 [Compound 273, N-(3-((6-methyl-2-(3-(4-(trifluoromethoxy)phenyl)ureido)pyrimidin-4-yl)amino)propyl)acetamide]
< 1000	CC(=O)NCCNc1cc(C)nc(NC(=O)Nc2ccc(OC(F)(F)F)cc2)n1 [Compound 274, N-(3-((6-methyl-2-(3-(4-(trifluoromethoxy)phenyl)ureido)pyrimidin-4-yl)amino)ethyl)acetamide]
< 1000	COc1ccc(NC(=O)Nc2nc(C)cc(NCCCNC(C)=O)n2)cc1 [Compound 275, N-(3-((2-(3-(4-methoxyphenyl)ureido)-6-methylpyrimidin-4-yl)amino)propyl)acetamide]
< 1000	COc1ccc(NC(=O)Nc2nc(C)cc(NCCNC(C)=O)n2)cc1 [Compound 276, N-(2-((2-(3-(4-methoxyphenyl)ureido)-6-methylpyrimidin-4-yl)amino)ethyl)acetamide]
1000 to 10000	CC(=O)NCCNc1cc(C)nc(NC(=O)Nc2cccc(C(F)(F)F)c2)n1 [Compound 277]
< 1000	CC(=O)NCCCNc1cc(C)nc(NC(=O)Nc2ccc(F)c(Cl)c2)n1 [Compound 278]
< 1000	Cc1cc(NCCNS(C)(=O)=O)nc(NC(=O)Nc2ccc(OC(F)(F)F)cc2)n1 [Compound 279]
1000 to 10000	Cc1cc(NCCCN(C)C)nc(NC(=O)Nc2ccc3c(c2)OCO3)n1 [Compound 281, 1-(benzo[d][1,3]dioxol-5-yl)-3-(4-((3-(dimethylamino)propyl)amino)-6-methylpyrimidin-2-yl)urea]

IC50 [nM]	Compound
< 1000	Cc1cc(NCCCN)nc(NC(=O)Nc2ccc3c(c2)OCO3)n1 [Compound 282]
< 1000	Cc1cc(NCCN)nc(NC(=O)Nc2ccc3c(c2)OCO3)n1 [Compound 283]
1000 to 10000	Cc1cc(NCCN(C)C)nc(NC(=O)Nc2ccc3c(c2)OCO3)n1 [Compound 284]
< 1000	CCNc1cc(C)nc(NC(=O)Nc2ccc3c(c2)OCO3)n1 [Compound 285]
< 1000	CCCNc1cc(C)nc(NC(=O)Nc2ccc3c(c2)OCO3)n1 [Compound 286]
< 1000	CNCCNc1cc(C)nc(NC(=O)Nc2ccc3c(c2)OCO3)n1 [Compound 288, 1-(benzo[d][1,3]dioxol-5-yl)-3-(4-methyl-6-((2-(methylamino)ethyl)amino)pyrimidin-2-yl)urea]
1000 to 10000	CNCCCNc1cc(C)nc(NC(=O)Nc2ccc3c(c2)OCO3)n1 [Compound 289, 1-(benzo[d][1,3]dioxol-5-yl)-3-(4-methyl-6-((3-(methylamino)propyl)amino)pyrimidin-2-yl)urea]
< 1000	Cc1cc(NCCCN(C)C)nc(NC(=O)Nc2ccc3c(c2)OCCO3)n1 [Compound 291, 1-(2,3-dihydrobenzo[b][1,4]dioxin-6-yl)-3-(4-((3-(dimethylamino)propyl)amino)-6-methylpyrimidin-2-yl)urea]
< 1000	Cc1cc(NCCCN)nc(NC(=O)Nc2ccc3c(c2)OCCO3)n1 [Compound 292]
1000 to 10000	Cc1cc(NCCN)nc(NC(=O)Nc2ccc3c(c2)OCCO3)n1 [Compound 293]
< 1000	Cc1cc(NCCN(C)C)nc(NC(=O)Nc2ccc3c(c2)OCCO3)n1 [Compound 294]
< 1000	CCNc1cc(C)nc(NC(=O)Nc2ccc3c(c2)OCCO3)n1 [Compound 295]
< 1000	CCCNc1cc(C)nc(NC(=O)Nc2ccc3c(c2)OCCO3)n1 [Compound 296]
< 1000	CNCCNc1cc(C)nc(NC(=O)Nc2ccc3c(c2)OCCO3)n1 [Compound 298, 1-(2,3-dihydrobenzo[b][1,4]dioxin-6-yl)-3-(4-methyl-6-((2-(methylamino)ethyl)amino)pyrimidin-2-yl)urea]
1000 to 10000	CNCCCNc1cc(C)nc(NC(=O)Nc2ccc3c(c2)OCCO3)n1 [Compound 299, 1-(2,3-dihydrobenzo[b][1,4]dioxin-6-yl)-3-(4-methyl-6-((3-(methylamino)propyl)amino)pyrimidin-2-yl)urea]
< 1000	Cc1cc(NCCCN(C)C)nc(NC(=O)Nc2ccc(C(C)(C)C)cc2)n1 [Compound 301, 1-(4-(tert-butyl)phenyl)-3-(4-((3-(dimethylamino)propyl)amino)-6-methylpyrimidin-2-yl)urea]
1000 to 10000	Cc1cc(NCCN(C)C)nc(NC(=O)Nc2ccc(C(C)(C)C)cc2)n1 [Compound 302]
< 1000	Cc1cc(NCCCN)nc(NC(=O)Nc2ccc(C(C)(C)C)cc2)n1 [Compound 303]
< 1000	Cc1cc(NCCN)nc(NC(=O)Nc2ccc(C(C)(C)C)cc2)n1 [Compound 304]
< 1000	CC(=O)NCCCNc1cc(C)nc(NC(=O)Nc2ccc3c(c2)OCO3)n1 [Compound 305, N-(3-((2-(3-(benzo[d][1,3]dioxol-5-yl)ureido)-6-methylpyrimidin-4-yl)amino)propyl)acetamide]
1000 to 10000	CC(=O)NCCNc1cc(C)nc(NC(=O)Nc2ccc3c(c2)OCO3)n1 [Compound 306, N-{2-[2-(3-benzo[1,3]dioxol-5-yl-ureido)-6-methyl-pyrimidin-4-ylamino]-ethyl}-acetamide]
< 1000	CC(=O)NCCNc1cc(C)nc(NC(=O)Nc2ccc3c(c2)OCCO3)n1 [Compound 307, N-(2-{2-[3-(2,3-dihydro-benzo[1,4]dioxin-6-yl)-ureido]-6-methyl-pyrimidin-4-ylamino}-ethyl)-acetamide]
< 1000	CC(=O)NCCCNc1cc(C)nc(NC(=O)Nc2ccc3c(c2)OCCO3)n1 [Compound 308, N-(3-{2-[3-(2,3-dihydro-benzo[1,4]dioxin-6-yl)-ureido]-6-methyl-pyrimidin-4-ylamino}-propyl)-acetamide]
< 1000	CC(=O)NCCNc1cc(C)nc(NC(=O)Nc2ccc(C(C)(C)C)cc2)n1 [Compound 309, N-(2-{2-[3-(4-tert-butyl-phenyl)-ureido]-6-methyl-pyrimidin-4-ylamino}-ethyl)-ace mid]
< 1000	CC(=O)NCCCNc1cc(C)nc(NC(=O)Nc2ccc(C(C)(C)C)cc2)n1 [Compound 310, N-(3-{2-[3-(4-tert-butyl-phenyl)-ureido]-6-methyl-pyrimidin-4-ylamino}-propyl)-acetamide]
